Values joined by “and” are separate entries in the source; they are usually repeats but may differ in a detail not shown here. Equal values may be shown once.
How the values were obtained:
Assay type in all cases: physicochemical
[1] = Test Example 1: comparison of absorption spectra; conditions: for negative absorption: FIG. 1, range of 750-800 nm
Protocol: (§1) LC/MS was measured by ESI (electrospray ionization) using the LC/MSD SL of Agilent Technologies. The absorption spectrum and maximum absorption wavelength (λabs) of the synthesized dye were measured with Lambda 45 of PerkinElmer. The emission spectrum and maximum emission wavelength (λfl) were measured with LS-55 of PerkinElmer.
(§2) In order to investigate the absorption intensity and spectrum of the anthraquinone compound according to the present disclosure, the absorption spectra of the compounds of Example 1 and Example 6 and commercially available BHQ-3 as a comparative example were compared. Stock solutions were prepared by dissolving the compounds of Example 1 and Example 6 according to the present disclosure in distilled water. BHQ-3 was dissolved in a small amount of DMSO according to the manufacturer's instructions and diluted with distilled water.

[2] = Solubility in water (stock solution preparation)
Protocol: as §2

[3] = Maximum absorption wavelength (λabs) of the synthesized dye in PBS
Protocol: as §1

Structure (SMILES) | negative absorption [1] | range of absorption spectra, normalized to the maximum absorption intensity ([1]; FIG. 2) | solubility in water [2] | λabs (maximum absorption wavelength) [3]
CCN(CC)c1ccc2nc3ccc(/N=N/c4ccc(N(C)CCCC(=O)O)cc4)cc3[n+](-c3ccccc3)c2c1 [BHQ-3, reference compound] | negative (−) absorption | 300-750 nm | not dissolved in water | –
CN(CCCCCC(=O)O)c1ccc(/N=N/c2ccc(Nc3cc(S(=O)(=O)O)c(N)c4c3C(=O)c3ccccc3C4=O)c(S(=O)(=O)O)c2)cc1 [Example 1] | did not show negative absorption | – | – | 481 nm and 626 nm
C=CS(=O)(=O)CCNC(=O)CCCCCN(C)c1ccc(/N=N/c2ccc(Nc3cc(S(=O)(=O)O)c(N)c4c3C(=O)c3ccccc3C4=O)c(S(=O)(=O)O)c2)cc1 [Example 3] | – | – | – | 481 nm and 626 nm
CN(CCCCCCCC(=O)O)c1ccc(/N=N/c2ccc(Nc3cc(S(=O)(=O)O)c(N)c4c3C(=O)c3ccccc3C4=O)c(S(=O)(=O)O)c2)cc1 [Example 5] | – | – | – | 472 nm and 624 nm
CN(CCCCCCCC(=O)ON1C(=O)CCC1=O)c1ccc(/N=N/c2ccc(Nc3cc(S(=O)(=O)O)c(N)c4c3C(=O)c3ccccc3C4=O)c(S(=O)(=O)O)c2)cc1 [Example 6] | did not show negative absorption | – | – | –
C=CS(=O)(=O)CCNC(=O)CCCCCCCN(C)c1ccc(/N=N/c2ccc(Nc3cc(S(=O)(=O)O)c(N)c4c3C(=O)c3ccccc3C4=O)c(S(=O)(=O)O)c2)cc1 [Example 7] | – | – | – | 472 nm and 624 nm

Reference: US9512315B2, “Quenching dye for labeling biomolecules and method for preparing the same” (DKC CORPORATION, priority 2013, dated 2016)
